Molecular target: T1, NEDD8 activating enzyme (Homo sapiens, UniProt Q8TBC4)
T1 sequence (Q8TBC4 whole entry): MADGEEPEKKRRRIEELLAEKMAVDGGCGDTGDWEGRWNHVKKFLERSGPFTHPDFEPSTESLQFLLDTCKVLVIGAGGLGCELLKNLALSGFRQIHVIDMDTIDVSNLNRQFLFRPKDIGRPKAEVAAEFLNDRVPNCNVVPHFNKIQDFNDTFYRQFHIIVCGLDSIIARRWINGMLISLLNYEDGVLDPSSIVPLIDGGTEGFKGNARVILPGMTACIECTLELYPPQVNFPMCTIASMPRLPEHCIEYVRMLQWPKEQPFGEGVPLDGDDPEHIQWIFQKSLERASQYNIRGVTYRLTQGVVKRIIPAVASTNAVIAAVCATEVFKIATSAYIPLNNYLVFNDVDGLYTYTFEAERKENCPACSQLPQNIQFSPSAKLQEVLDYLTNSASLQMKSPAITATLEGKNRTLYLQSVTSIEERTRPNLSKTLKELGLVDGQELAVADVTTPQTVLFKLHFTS
T1 sequence (Q13564 whole entry): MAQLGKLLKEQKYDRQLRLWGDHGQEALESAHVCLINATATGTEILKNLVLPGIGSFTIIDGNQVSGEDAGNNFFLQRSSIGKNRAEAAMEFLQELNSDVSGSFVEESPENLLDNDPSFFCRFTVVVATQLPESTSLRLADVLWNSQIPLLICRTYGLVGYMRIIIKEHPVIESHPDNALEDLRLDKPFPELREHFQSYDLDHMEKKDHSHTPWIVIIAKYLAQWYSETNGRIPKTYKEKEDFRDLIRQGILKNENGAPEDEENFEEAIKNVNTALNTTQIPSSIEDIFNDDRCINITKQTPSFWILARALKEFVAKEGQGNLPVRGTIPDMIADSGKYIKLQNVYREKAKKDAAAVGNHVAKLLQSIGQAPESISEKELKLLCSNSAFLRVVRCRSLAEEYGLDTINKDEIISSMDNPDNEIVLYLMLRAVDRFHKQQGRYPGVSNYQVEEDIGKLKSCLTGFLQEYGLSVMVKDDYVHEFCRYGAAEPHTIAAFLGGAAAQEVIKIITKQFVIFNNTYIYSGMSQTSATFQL
Test: Inhibition of NAE (unknown origin) using GST-tagged Ubc12 and Flag-tagged Nedd8 measured after 2 hrs by TR-FRET assay
Type: protein-complex assay
Conditions: not given

| SMILES | IC50 |
| --- | --- |
| NS(=O)(=O)OC[C@H]1C[C@@H](Nc2ncncc2C(=O)c2cn(Cc3cccc(C(F)(F)F)c3)c3ccccc23)[C@H](O)[C@@H]1O | 0.012 µM |
| COc1cccc(Cn2cc(C(=O)c3cncnc3N[C@@H]3C[C@H](COS(N)(=O)=O)[C@@H](O)[C@H]3O)c3ccccc32)c1 | 0.022 µM |
| NS(=O)(=O)OC[C@H]1C[C@@H](Nc2ncncc2C(=O)c2cn(Cc3cccc(F)c3)c3ccccc23)[C@H](O)[C@@H]1O | 0.091 µM |
| Cc1c(Cn2cc(C(=O)c3cncnc3N[C@@H]3C[C@H](COS(N)(=O)=O)[C@@H](O)[C@H]3O)c3cc(F)ccc32)cccc1C(F)(F)F | 0.112 µM |
| Cc1cc(Cn2cc(C(=O)c3cncnc3N[C@@H]3C[C@H](COS(N)(=O)=O)[C@@H](O)[C@H]3O)c3cc(F)ccc32)ccc1F | 0.015 µM |
| NS(=O)(=O)OC[C@H]1C[C@@H](Nc2ncncc2C(=O)c2cn(Cc3cc(Cl)ccc3Cl)c3ccccc23)[C@H](O)[C@@H]1O | 0.037 µM |
| NS(=O)(=O)OC[C@H]1C[C@@H](Nc2ncncc2C(=O)c2cn(Cc3cccc(Cl)c3)c3ccccc23)[C@H](O)[C@@H]1O | 0.019 µM |
| NS(=O)(=O)OC[C@H]1C[C@@H](Nc2ncncc2C(=O)c2cn(Cc3ccccc3)c3ccccc23)C[C@@H]1O | 0.0006 µM |
| NS(=O)(=O)OC[C@H]1C[C@@H](Nc2ncncc2C(=O)c2cn(Cc3ccc(F)c(F)c3)c3ccccc23)[C@H](O)[C@@H]1O | 0.02 µM |
| NS(=O)(=O)OC[C@H]1C[C@@H](Nc2ncncc2C(=O)c2cn(Cc3ccc4ccccc4c3)c3ccc(F)cc23)[C@H](O)[C@@H]1O | 0.141 µM |
| NS(=O)(=O)OC[C@H]1C[C@@H](Nc2ncncc2C(=O)c2cn(Cc3ccc(S(F)(F)(F)(F)F)cc3)c3ccc(F)cc23)[C@H](O)[C@@H]1O | 0.01 µM |
| NS(=O)(=O)OC[C@H]1C[C@@H](Nc2ncncc2C(=O)c2cn(Cc3ccccc3)c3ccccc23)[C@H](O)[C@@H]1O | 0.005 µM |
| NS(=O)(=O)OC[C@H]1C[C@@H](Nc2ncncc2C(=O)c2cn(Cc3cccc(N4CCOCC4)c3)c3ccc(F)cc23)[C@H](O)[C@@H]1O | 0.013 µM |
| NS(=O)(=O)OC[C@H]1C[C@@H](Nc2ncncc2C(=O)c2cn(Cc3cccc(Br)c3)c3ccc(F)cc23)[C@H](O)[C@@H]1O | 0.0009 µM |

Test system: HCT-116
Test: Antiproliferative activity against human HCT116 cells after 48 hrs by CCK8 assay
Type: functional
Conditions: HCT-116, 48 h, read-out: LD50 (the source's name)

| SMILES | CC50 |
| --- | --- |
| NS(=O)(=O)OC[C@H]1C[C@@H](Nc2ncncc2C(=O)c2cn(Cc3cccc(C(F)(F)F)c3)c3ccccc23)[C@H](O)[C@@H]1O | 1.24 µM |
| COc1cccc(Cn2cc(C(=O)c3cncnc3N[C@@H]3C[C@H](COS(N)(=O)=O)[C@@H](O)[C@H]3O)c3ccccc32)c1 | 0.431 µM |
| NS(=O)(=O)OC[C@H]1C[C@@H](Nc2ncncc2C(=O)c2cn(Cc3cccc(F)c3)c3ccccc23)[C@H](O)[C@@H]1O | 0.456 µM |
| NS(=O)(=O)OC[C@H]1C[C@@H](Nc2ncncc2C(=O)c2cn(Cc3cc(Cl)ccc3Cl)c3ccccc23)[C@H](O)[C@@H]1O | 0.643 µM |
| NS(=O)(=O)OC[C@H]1C[C@@H](Nc2ncncc2C(=O)c2cn(Cc3cccc(Cl)c3)c3ccccc23)[C@H](O)[C@@H]1O | 0.79 µM |
| NS(=O)(=O)OC[C@H]1C[C@@H](Nc2ncncc2C(=O)c2cn(Cc3ccc(F)c(F)c3)c3ccccc23)[C@H](O)[C@@H]1O | 2.28 µM |
| NS(=O)(=O)OC[C@H]1C[C@@H](Nc2ncncc2C(=O)c2cn(Cc3ccccc3)c3ccccc23)[C@H](O)[C@@H]1O | 0.228 µM |
| NS(=O)(=O)OC[C@H]1C[C@@H](Nc2ncncc2C(=O)c2cn(Cc3cccc(Br)c3)c3ccc(F)cc23)[C@H](O)[C@@H]1O | 1.01 µM |

Test system: THP-1
Test: Antiproliferative activity against human THP1 cells after 48 hrs by CCK8 assay
Type: functional
Conditions: THP-1, 48 h, read-out: LD50 (the source's name)

| SMILES | CC50 |
| --- | --- |
| NS(=O)(=O)OC[C@H]1C[C@@H](Nc2ncncc2C(=O)c2cn(Cc3cccc(C(F)(F)F)c3)c3ccccc23)[C@H](O)[C@@H]1O | 1.28 µM |
| COc1cccc(Cn2cc(C(=O)c3cncnc3N[C@@H]3C[C@H](COS(N)(=O)=O)[C@@H](O)[C@H]3O)c3ccccc32)c1 | < 0.03 µM |
| NS(=O)(=O)OC[C@H]1C[C@@H](Nc2ncncc2C(=O)c2cn(Cc3cccc(F)c3)c3ccccc23)[C@H](O)[C@@H]1O | < 0.03 µM |
| NS(=O)(=O)OC[C@H]1C[C@@H](Nc2ncncc2C(=O)c2cn(Cc3cc(Cl)ccc3Cl)c3ccccc23)[C@H](O)[C@@H]1O | 0.662 µM |
| NS(=O)(=O)OC[C@H]1C[C@@H](Nc2ncncc2C(=O)c2cn(Cc3cccc(Cl)c3)c3ccccc23)[C@H](O)[C@@H]1O | 0.6 µM |
| NS(=O)(=O)OC[C@H]1C[C@@H](Nc2ncncc2C(=O)c2cn(Cc3ccc(F)c(F)c3)c3ccccc23)[C@H](O)[C@@H]1O | 1.81 µM |
| NS(=O)(=O)OC[C@H]1C[C@@H](Nc2ncncc2C(=O)c2cn(Cc3ccccc3)c3ccccc23)[C@H](O)[C@@H]1O | < 0.03 µM |
| NS(=O)(=O)OC[C@H]1C[C@@H](Nc2ncncc2C(=O)c2cn(Cc3cccc(Br)c3)c3ccc(F)cc23)[C@H](O)[C@@H]1O | 0.896 µM |

Molecular target: SUMO-activating enzyme (Homo sapiens, UniProt Q9UBT2)
Sequence (Q9UBE0 whole entry): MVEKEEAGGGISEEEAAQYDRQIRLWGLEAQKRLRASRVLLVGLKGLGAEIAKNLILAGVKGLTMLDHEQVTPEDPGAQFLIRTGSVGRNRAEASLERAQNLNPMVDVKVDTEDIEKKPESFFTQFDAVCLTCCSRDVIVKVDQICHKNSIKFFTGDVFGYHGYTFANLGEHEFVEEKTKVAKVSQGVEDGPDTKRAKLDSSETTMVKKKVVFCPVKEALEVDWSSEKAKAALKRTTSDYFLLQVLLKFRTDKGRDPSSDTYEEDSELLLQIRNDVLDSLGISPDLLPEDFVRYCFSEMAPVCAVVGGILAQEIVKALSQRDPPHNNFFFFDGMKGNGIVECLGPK
Sequence (Q9UBT2 whole entry): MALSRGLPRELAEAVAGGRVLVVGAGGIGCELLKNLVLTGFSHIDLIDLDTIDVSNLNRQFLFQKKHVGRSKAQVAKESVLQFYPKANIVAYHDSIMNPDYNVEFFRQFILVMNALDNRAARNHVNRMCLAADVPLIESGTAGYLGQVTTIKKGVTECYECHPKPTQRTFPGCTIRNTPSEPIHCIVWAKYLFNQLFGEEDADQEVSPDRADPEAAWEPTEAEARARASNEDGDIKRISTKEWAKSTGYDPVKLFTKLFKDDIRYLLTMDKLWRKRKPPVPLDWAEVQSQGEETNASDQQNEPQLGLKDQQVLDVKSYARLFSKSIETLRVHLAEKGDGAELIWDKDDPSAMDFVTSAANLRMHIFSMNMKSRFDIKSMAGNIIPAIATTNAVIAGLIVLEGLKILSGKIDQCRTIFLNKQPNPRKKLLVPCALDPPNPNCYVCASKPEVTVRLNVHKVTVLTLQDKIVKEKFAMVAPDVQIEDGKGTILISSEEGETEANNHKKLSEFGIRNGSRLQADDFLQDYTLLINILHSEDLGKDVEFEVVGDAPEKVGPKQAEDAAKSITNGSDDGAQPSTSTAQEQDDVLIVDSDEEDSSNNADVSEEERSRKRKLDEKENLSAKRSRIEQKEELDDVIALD
Test: Inhibition of SAE (unknown origin) using recombinant His-tagged human SUMO1 measured after 2 hrs by HTRF assay
Type: protein-complex assay
Conditions: not given

| SMILES | IC50 |
| --- | --- |
| NS(=O)(=O)OC[C@H]1C[C@@H](Nc2ncncc2C(=O)c2cn(Cc3cccc(C(F)(F)F)c3)c3ccccc23)[C@H](O)[C@@H]1O | 3.18 µM |
| COc1cccc(Cn2cc(C(=O)c3cncnc3N[C@@H]3C[C@H](COS(N)(=O)=O)[C@@H](O)[C@H]3O)c3ccccc32)c1 | 0.04 µM |
| NS(=O)(=O)OC[C@H]1C[C@@H](Nc2ncncc2C(=O)c2cn(Cc3cccc(F)c3)c3ccccc23)[C@H](O)[C@@H]1O | 1.65 µM |
| Cc1c(Cn2cc(C(=O)c3cncnc3N[C@@H]3C[C@H](COS(N)(=O)=O)[C@@H](O)[C@H]3O)c3cc(F)ccc32)cccc1C(F)(F)F | 0.99 µM |
| Cc1cc(Cn2cc(C(=O)c3cncnc3N[C@@H]3C[C@H](COS(N)(=O)=O)[C@@H](O)[C@H]3O)c3cc(F)ccc32)ccc1F | 1.72 µM |
| NS(=O)(=O)OC[C@H]1C[C@@H](Nc2ncncc2C(=O)c2cn(Cc3cccc(Cl)c3)c3ccccc23)[C@H](O)[C@@H]1O | 0.46 µM |
| NS(=O)(=O)OC[C@H]1C[C@@H](Nc2ncncc2C(=O)c2cn(Cc3ccccc3)c3ccccc23)C[C@@H]1O | 0.56 µM |
| NS(=O)(=O)OC[C@H]1C[C@@H](Nc2ncncc2C(=O)c2cn(Cc3ccc(F)c(F)c3)c3ccccc23)[C@H](O)[C@@H]1O | 3.48 µM |
| NS(=O)(=O)OC[C@H]1C[C@@H](Nc2ncncc2C(=O)c2cn(Cc3ccccc3)c3ccccc23)[C@H](O)[C@@H]1O | 0.12 µM |
| NS(=O)(=O)OC[C@H]1C[C@@H](Nc2ncncc2C(=O)c2cn(Cc3cccc(N4CCOCC4)c3)c3ccc(F)cc23)[C@H](O)[C@@H]1O | > 10 µM |
| NS(=O)(=O)OC[C@H]1C[C@@H](Nc2ncncc2C(=O)c2cn(Cc3cccc(Br)c3)c3ccc(F)cc23)[C@H](O)[C@@H]1O | 0.53 µM |

From ChEMBL document CHEMBL4482323, “Novel heterocyclic compound, method for preparing same, and pharmaceutical composition comprising same as active ingredient for preventing or treating cancer” (2017)
